From ChEMBL document CHEMBL1135867, “Synthesis, photobiological activity and photoreactivity of methyl-thieno-8-azacoumarins, novel bioisosters of psoralen” (Bioorg Med Chem Lett, 2002)
Activity calls are given as the source filed them. No cut-off for these calls is given here.

How the values were obtained:
Cavia porcellus [1] = experiment: Skin phototoxicity was evaluated after UVA irradiation at a dose of 0.05 (umol cm e-2) and formation of erythema was reported; Strong (with edema); assay type: functional, organism-based
Cavia porcellus [2] = species on record: Cavia porcellus; experiment: Skin phototoxicity was evaluated after UVA irradiation at a dose of 0.2 (umol cm e-2) and formation of erythema was reported; Absent; assay type: functional, organism-based
HeLa = experiment: Compound was evaluated for its antiproliferative activity after UVA irradiation on human tumor HeLa cell line; assay type: functional, cell-based; conditions: light or radiation study
HL-60 = experiment: Compound was evaluated for its antiproliferative activity after UVA irradiation on human tumor HL-60 cell line; assay type: functional, cell-based; conditions: HL-60, light or radiation study

Row | IC50 (HeLa) [µM] | IC50 (HL-60) [µM] | Structure (SMILES) | Formation of erythema (Cavia porcellus [1]) | Formation of erythema (Cavia porcellus [2])
1 |  |  | COc1c2occc2cc2ccc(=O)oc12 | Active | 
2 | > 20 | 7.3 | Cc1sc2nc3oc(=O)cc(C)c3cc2c1C |  | inactive
3 | 8.9 | 2.2 | Cc1cc(=O)oc2nc3scc(C)c3cc12 |  | inactive
